Test results taken from patent US11911399B2, “Treating and preventing disease with TMA and TMAO lowering agents” (The Cleveland Clinic Foundation, priority 2014, dated 2024).
“Also recorded” adds a separate entry of the source. Read-outs that look alike come from different tables or passages of the source.

Columns and labels:
microbial TMA lyase = assay: TMA lyase activity of Proteus mirabilis lysate (TMA production from d9 substrates); format: biochemical
Description: Using PM lysate (PM that is lysed in a French press to break open the cell wall and release enzyme contents) as the enzyme source, the TMA lyase activity (TMA producing activity) was examined in incubations with either d9(trimethyl)choline as substrate, or […] (GPC) as substrate. […] A further examination of the impact of ASA on TMA lyase activity by PM lysate was undertaken. Three mg of PM lysate was incubated with 25 uM choline and 25 uM choline(d9) in 2 ml PBS at 37 C for 20 hours. In FIG. 7, the dotted lines at 81 mg and 320 mg ASA represent reported steady state plasma levels of aspirin reported at those doses in human subjects. […] In light of this, in some embodiments, enteric coated aspirin or aspirin derivatives that have delayed absorption may be employed to treat disease since they would dissolve in the intestines past the stomach, such that the level of ASA or derivative delivered to the gut lumen will be higher. There exist even longer delayed release formulations of medications that could also be used.

[1] = omnivores, ASA 81 mg daily for at least a month, then daily choline supplementation
[2] = system: in vivo thrombosis potential
[3] = Plasma TMAO in mice on chow or choline diet with or without ASA (LC/MS/MS); format: in vivo, C57BL/6J females mice; settings: both diets (chow and choline), p<0.05 in each diet
platelet aggregation = assay: Platelet aggregometry with submaximal ADP stimulation in human subjects
Description: In further works, human volunteer subject were enrolled in the following study. Individuals were examined at baseline for plasma TMAO and blood drawn for platelet aggregometry studies with submaximal ADP stimulation. Subjects were examined both naïve to aspirin, and then at different time after taking chronic aspirin (81 mg daily) for at least a month. […] After washout period of at least 4 months with no choline supplement, subjects were placed on ASA daily (81 mg) and after a month of ASA, the baseline TMAO level and platelet aggregmetry measure monitored. Then, choline supplementation daily was again resumed.
Choline supplement was used in subjects (choline bitartrate, 2×500 mg/day=choline 2×205.7 mg/day), for 2 month period. Samples were collected at baseline and monthly blood were draw (1,2 months). Plasma levels of TMAO were measured and platelet aggregation in response to 5 uM ADP were measured.

cystatin C = assay: Cystatin C levels in mice (ELISA); format: in vivo; settings: 16 weeks diet: TMAO 0.12% or choline 1.0% vs chow
[4] = system: parenchymal fibrosis and collagen deposition in mouse kidneys; assay: Renal fibrosis, Mason trichrome quantitative morphometry; format: in vivo, C57BL/6J mice; settings: 6 weeks diet: TMAO 0.12% or choline 1.0% vs chow
Excerpt: Quantitative Histologic Techniques.

KIM-1 = assay: Immunoblot of KIM-1 expression in mouse kidneys; format: in vivo, C57BL/6J mice; settings: 6 weeks diet: TMAO 0.12% or choline 1.0% vs chow
Excerpt: (§1) Preparation of tissue homogenates and immunoblotting.

SMAD3 = assay: Immunoblot of Smad3 phosphorylation in mouse kidneys; format: in vivo, C57BL/6J mice; settings: 6 weeks diet: TMAO 0.12% or choline 1.0% vs chow
Excerpt: as §1

Row | SMILES | TMA lyase inhibition (microbial TMA lyase; 3 mg PM lysate, 25 uM choline and 25 uM choline(d9), 37 C, 20 hours, at ASA plasma level anticipated for 320 mg dose) | inhibition of TMA production (choline TMA lyase activity) (microbial TMA lyase; PM lysate, d9(trimethyl)choline as substrate, physiological range of ASA) | inhibition of TMA production (GPC TMA lyase activity) (microbial TMA lyase; PM lysate, d9(trimethyl)glycerophosphocholine (GPC) as substrate, physiological range of ASA) | rise in plasma TMAO on choline supplementation [1] | time to blood flow cessation ([2]; choline diet+ASA group vs control (chow and no ASA)) | reduction in TMAO level by addition of ASA [3] | rise in platelet aggregation on choline supplementation (platelet aggregation; omnivores, ASA 81 mg daily, submaximal ADP stimulation) | serum cystatin C levels (cystatin C) | parenchymal fibrosis and collagen deposition [4] | kidney injury marker-1 (KIM-1) (KIM-1) | time to blood flow cessation ([2]; choline diet alone vs chow, p<0.0001) | platelet aggregometry (platelet aggregation; human, in vivo) | phosphorylation of Smad3 (serine 423/425) (SMAD3)
1 | CC(=O)Oc1ccccc1C(=O)O [ASA, acetylsalicylic acid] | approximately 40% | inhibited TMA production; also recorded: inhibits | inhibited TMA production; also recorded: inhibits | The impact of the choline diet on rise in TMAO was blunted | no difference in time to blood flow cessation relative to the control | approx. 2 fold | corresponding rise in platelet aggregation too was blunted | – | – | – | – | – | –
2 | C[N+](C)(C)CCO [choline] | – | – | – | – | – | – | – | increased serum cystatin C levels compared to chow-fed mice | corresponding increases in parenchymal fibrosis and collagen deposition | increased kidney injury marker-1 | reduces the time to blood flow cessation | corresponding increases in platelet aggregometrry | enhanced phosphorylation of Smad3
3 | C[N+](C)(C)[O-] [TMAO, trimethylamine N-oxide] | – | – | – | – | – | – | – | increased serum cystatin C levels compared to chow-fed mice | corresponding increases in parenchymal fibrosis and collagen deposition | increased kidney injury marker-1 | – | – | enhanced phosphorylation of Smad3
